Measured values from patent publication US10189863B2, “5,6-dihydro-4H-benzo[b]thieno-[2,3-d]azepine derivatives” (PULMOCIDE LIMITED, priority 2014, dated 2019).

Tests used:
RSV A2 strain = assay: Assessment of RSV induced CPE in HEp2 cells (RSV A2 strain); format: cell-based; details: human respiratory syncytial virus, HEp2 cells; for IC50: HEp-2, 120 h, 1 MOI, 5 days, read-out: RSV A2 CPE IC50; for inhibition at 0.1 µg/mL / inhibition at 0.01 µg/mL: HEp-2; for inhibition at 0.1 µg/mL: Inhibition (%) at 0.1 μg/mL, read-out: RSV A2 CPE % Inhibition; for inhibition at 0.01 µg/mL: Inhibition (%) at 0.01 μg/mL
Experimental: (§1) Assessment of RSV Induced CPE in HEp2 Cells
(§2) HEp2 cells were seeded (10^3/well/50 μL) in 384-well plates (Catalogue number 353962, BD Falcon, Oxford, UK) in […] containing 2 mM L-glutamine and 1 mM sodium pyruvate one day before infection. RSV A2 strain (#0709161v, NCPV, Public Health England, Wiltshire) or RSV B Washington strain (VR-1580, ATCC, Manassas, Va. 20108) virus solutions were prepared in serum free-DMEM with 2 mM L-glutamine and 1 mM sodium pyruvate, and then added (50 μL/well) to achieve a final virus concentration of 1 MOI. Simultaneously test compounds (0.5 μL DMSO solution) were added to 100 μL of HEp2 cell culture with virus solution to provide a final DMSO solution of 0.5%. Plates were incubated (37° C./5% CO2) for 5 days for studies using RSV A2 strain or 6 days for those using RSV B strain, and then resazurin sodium salt (5 μL of 0.03% solution; Sigma-Aldrich, Dorset, UK) was added to each well and the plate incubated for a further 6 hr (37° C./5% CO2). The fluorescence of each well [545 nm (excitation)/590 nm (emission)] was determined using a multi-scanner (Clariostar: BMG, Buckinghamshire, UK). The percentage inhibition for each well was calculated and the IC50, IC75 and IC90 values were calculated from the concentration-response curve generated for each test compound.

RSV B Washington strain = assay: Assessment of RSV induced CPE in HEp2 cells (RSV B Washington strain); format: cell-based; details: human respiratory syncytial virus, HEp2 cells; for IC50: HEp-2, 144 h, 1 MOI, 6 days, read-out: RSV B CPE IC50; for inhibition at 1 µg/mL: HEp-2, Inhibition (%) at 1 μg/mL, read-out: RSV B CPE % Inhibition
Experimental: as §1, §2

[1] = Cell viability: resazurin assay; format: cell-based, human; details: human, HEp2 cells
Experimental: Cell Viability: Resazurin Assay
HEp2 cells were seeded in 384-well plates (10^3/well/50 μL; BD Falcon Ref 353962) in FBS DMEM (5%, containing 2 mM L-glutamine and 1 mM sodium pyruvate) one day before experimentation. Serum-free DMEM (50 μL) was added to test wells while for control wells the media was removed and sterile water (100 μL) was added. Test compounds (0.5 μL DMSO solution) were added to give a final DMSO concentration of 0.5%. Hep2 cells were incubated with each test compound for 5 days (37° C./5% CO2 in 5% FBS) and then resazurin stock solution (5 μL; 0.03%) was added to each well and the plate incubated for a further 6 hr (37° C./5% CO2). The fluorescence of each well at 545 nm (excitation) and 590 nm (emission) was determined using a multi-scanner (Clariostar: BMG Labtech). The percentage loss of cell viability was calculated for each well relative to vehicle (0.5% DMSO) treatment.
Any apparent increase in cell viability associated with test compound treatment relative to vehicle is consequently tabulated as a negative percentage. Where appropriate, a CC50 value was calculated from the concentration-response curve generated from the concentration-response curve for each test compound.

Row | IC50 (RSV A2 strain) | IC50 (RSV B Washington strain) | SMILES | inhibition at 0.1 µg/mL (RSV A2 strain) | inhibition at 1 µg/mL (RSV B Washington strain) | CC50 at 5 days [1] | inhibition at 0.01 µg/mL (RSV A2 strain)
1 | 0.96 nM | 37.3 nM | Cc1ccc(NC(=O)c2cc3c(s2)-c2ccccc2N(C(=O)c2ccc(NC(=O)c4cccnc4N4CC5(CCOCC5)C4)cc2)CC3)c(F)c1 [Example 22, 6-(4-(2-(7-oxa-2-azaspiro[3.5]nonan-2-yl)nicotinamido)benzoyl)-N-(2-fluoro-4-methylphenyl)-5,6-dihydro-4H-benzo[b]thieno[2,3-d]azepine-2-carboxamide] | 96% | 77% | > 14200 nM | 
2 | 1.1 nM | 16.3 nM | COc1ccc(NC(=O)c2cc3c(s2)-c2ccccc2N(C(=O)c2ccc(NC(=O)c4cccnc4N4CC5(CCOCC5)C4)cc2)CC3)c(F)c1 [Example 23, 6-(4-(2-(7-oxa-2-azaspiro[3.5]nonan-2-yl)nicotinamido)benzoyl)-N-(2-fluoro-4-methoxyphenyl)-5,6-dihydro-4H-benzo[b]thieno[2,3-d]azepine-2-carboxamide] | 100% | 55% | > 13900 nM | 
3 | 0.57 nM | 19.6 nM | Cc1cccc(C)c1NC(=O)c1cc2c(s1)-c1ccccc1N(C(=O)c1ccc(NC(=O)c3cccnc3N3CC4(CCOCC4)C3)cc1)CC2 [Example 24, 6-(4-(2-(7-oxa-2-azaspiro[3.5]nonan-2-yl)nicotinamido)benzoyl)-N-(2,6-dimethylphenyl)-5,6-dihydro-4H-benzo[b] thieno[2,3-d]azepine-2-carboxamide] | 88% | 65% | > 14300 nM | 
4 | 0.18 nM | 20.6 nM | Cc1cccc(F)c1NC(=O)c1cc2c(s1)-c1ccccc1N(C(=O)c1ccc(NC(=O)c3cccnc3N3CC4(CCOCC4)C3)cc1)CC2 [Example 25, 6-(4-(2-(7-oxa-2-azaspiro[3.5]nonan-2-yl)nicotinamido)benzoyl)-N-(2-fluoro-6-methylphenyl)-5,6-dihydro-4H-benzo[b]thieno[2,3-d]azepine-2-carboxamide] | 99% | 71% | > 14200 nM | 
5 | 0.17 nM | 41.4 nM | O=C(Nc1c(F)cc(F)cc1F)c1cc2c(s1)-c1ccccc1N(C(=O)c1ccc(NC(=O)c3cccnc3N3CC4(CCOCC4)C3)cc1)CC2 [Example 28, 6-(4-(2-(7-oxa-2-azaspiro[3.5]nonan-2-yl)nicotinamido)benzoyl)-N-(2,4,6-trifluorophenyl)-5,6-dihydro-4H-benzo[b] thieno[2,3-d]azepine-2-carboxamide] | 96% | 66% | > 13800 nM | 
6 | 0.13 nM | 27.9 nM | O=C(Nc1ccccc1F)c1cc2c(s1)-c1ccccc1N(C(=O)c1ccc(NC(=O)c3cccnc3N3CC4(CCOCC4)C3)cc1F)CC2 [Example 29, 6-(4-(2-(7-oxa-2-azaspiro[3.5]nonan-2-yl)nicotinamido)-2-fluorobenzoyl)-N-(2-fluorophenyl)-5,6-dihydro-4H-benzo[b]thieno[2,3-d]azepine-2-carboxamide] | 97% | 73% | > 14200 nM | 
7 | 0.1 nM | 49.6 nM | O=C(Nc1c(F)cccc1Cl)c1cc2c(s1)-c1ccccc1N(C(=O)c1ccc(NC(=O)c3cccnc3N3CC4(CCOCC4)C3)cc1F)CC2 [Example 31, 6-(4-(2-(7-oxa-2-azaspiro[3.5]nonan-2-yl)nicotinamido)-2-fluorobenzoyl)-N-(2-chloro-6-fluorophenyl)-5,6-dihydro-4H-benzo[b]thieno[2,3-d]azepine-2-carboxamide] | 100% | 90% | > 13500 nM | 
8 | < 0.015 nM | 38.2 nM | Cc1cnc(N2CC3(CCOCC3)C2)c(C(=O)Nc2ccc(C(=O)N3CCc4cc(C(=O)Nc5ccccc5)sc4-c4ccccc43)cc2)c1 [Example 32, 6-(4-(5-methyl-2-(7-oxa-2-azaspiro[3.5]nonan-2-yl)nicotinamido)benzoyl)-N-phenyl-5,6-dihydro-4H-benzo[b] thieno[2,3-d]azepine-2-carboxamide] | 100% | 81% | > 14600 nM | 
9 | 0.11 nM | 38.5 nM | Cc1cnc(N2CC3(CCOCC3)C2)c(C(=O)Nc2ccc(C(=O)N3CCc4cc(C(=O)Nc5ccccc5Cl)sc4-c4ccccc43)cc2)c1 [Example 34, N-(2-chlorophenyl)-6-(4-(5-methyl-2-(7-oxa-2-azaspiro [3.5]nonan-2-yl)nicotinamido)benzoyl)-5,6-dihydro-4H-benzo[b]thieno[2,3-d]azepine-2-carboxamide] | 100% | 86% | > 13900 nM | 
10 | 0.14 nM | 62.8 nM | Cc1cnc(N2CC3(CCOCC3)C2)c(C(=O)Nc2ccc(C(=O)N3CCc4cc(C(=O)Nc5ccccc5C)sc4-c4ccccc43)cc2)c1 [Example 35, 6-(4-(5-methyl-2-(7-oxa-2-azaspiro[3.5]nonan-2-yl)nicotinamido)benzoyl)-N-(o-tolyl)-5,6-dihydro-4H-benzo[b] thieno[2,3-d]azepine-2-carboxamide] | 100% | 70% | > 14300 nM | 
11 | 0.16 nM | 13.4 nM | C=Cc1cccc(F)c1NC(=O)c1cc2c(s1)-c1ccccc1N(C(=O)c1ccc(NC(=O)c3cc(C)cnc3N3CC4(CCOCC4)C3)cc1)CC2 [Example 36, N-(2-fluoro-6-vinylphenyl)-6-(4-(5-methyl-2-(7-oxa-2-azaspiro[3.5]nonan-2-yl)nicotinamido)benzoyl)-5,6-dihydro-4H-benzo[b]thieno[2,3-d]azepine-2-carboxamide] |  | 99% | > 13700 nM | 95%
12 | 0.15 nM | 7.2 nM | C#Cc1cccc(F)c1NC(=O)c1cc2c(s1)-c1ccccc1N(C(=O)c1ccc(NC(=O)c3cc(C)cnc3N3CC4(CCOCC4)C3)cc1)CC2 [Example 37, N-(2-ethynyl-6-fluorophenyl)-6-(4-(5-methyl-2-(7-oxa-2-azaspiro[3.5]nonan-2-yl)nicotinamido)benzoyl)-5,6-dihydro-4H-benzo[b]thieno[2,3-d]azepine-2-carboxamide] |  | 100% | > 13800 nM | 100%
13 | < 0.014 nM | 18.4 nM | Cc1cnc(N2CC3(CCOCC3)C2)c(C(=O)Nc2ccc(C(=O)N3CCc4cc(C(=O)Nc5ccc(F)cc5F)sc4-c4ccccc43)cc2)c1 [Example 38, N-(2,4-difluorophenyl)-6-(4-(5-methyl-2-(7-oxa-2-aza-spiro[3.5]nonan-2-yl)nicotinamido)benzoyl)-5,6-dihydro-4H-benzo[b]thieno[2,3-d]azepine-2-carboxamide] | 100% | 73% | > 13900 nM | 
14 | 0.15 nM | 41.3 nM | Cc1ccc(C(=O)Nc2ccc(C(=O)N3CCc4cc(C(=O)Nc5c(C)cccc5F)sc4-c4ccccc43)cc2)c(N2CC3(CCOCC3)C2)n1 [Example 40, N-(2-fluoro-6-methylphenyl)-6-(4-(6-methyl-2-(7-oxa-2-azaspiro[3.5]nonan-2-yl)nicotinamido)benzoyl)-5,6-dihydro-4H-benzo[b]thieno[2,3-d]azepine-2-carboxamide] | 100% | 80% | > 14000 nM | 
